Read-outs that look alike come from different tables or passages of the source.
Tested on: SARS-CoV2/ZG/297-20
Assay type: cell-based
Settings: Calu-3 cells infected with SARS-CoV-2, MOI 0.05, observed for 120 hours, level about equal to uninfected cells

Compound	confluence of Calu-3 cells as compared to the infected cells (concentrations between 4 and 27 μM, FIG. 1)	confluence of Calu-3 cells as compared to the infected cells (concentrations between 16 and 81 μM, FIG. 2)
COc1cc2ncc3c(c2cc1-c1cn(C)nc1C)n(-c1c(F)cncc1OC)c(=O)n3C (atropisomer, axis not shown; (Sa)) [NCE4, 8-(1,3-dimethyl-1H-pyrazol-4-yl)-1-(Sa)-(3-fluoro-5-methoxy-pyridin-4-yl)-7-methoxy-3-methyl-1,3-dihydro-imidazo[4,5-c]quinolin-2-one]	significant retainment or improvement of the confluence of the cells	–
COc1cc2ncc3c(c2cc1-c1cnn(C)c1)n(-c1ccc(C#N)cc1F)c(=O)n3C [NCE16, 3-fluoro-4-[7-methoxy-3-methyl-8-(1-methyl-1H-pyrazol-4-yl)-2-oxo-2,3-dihydro-imidazo[4,5-c]quinolin-1-yl]-benzonitrile]	–	significant retainment or improvement of the confluence of the cells

Source: patent publication US20230226041A1, “COMPOUNDS FOR THE TREATMENT OF VIRAL INFECTIONS” (Merck Patent GmbH, priority 2020, published 2023)
